# Data published in PubChem BioAssay AID1963828 (Molecular Pharmacology Branch, DTP, NCI, 2024).
# Tested on: 991263-137-R1-J2-PDC complex spheroid viability
# Experiment: Anticancer human tumor 991263-137-R1-J2-PDC patient-derived colon adenocarcinoma cell line growth inhibition [POLQ]
# Settings: for IC50: curve of first compound; for viability, T/C: stronger effect = lower value
# Summary of the method: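 Three-cell-type spheroids modelling solid tumor plus stroma served as the readout system; POL inhibitors were tested individually and in combination, concentration ranges set by clinical Cmax where known.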
# [1] = second compound 0.0316 µM, first compound 0.0316 µM
# [2] = second compound 0.0316 µM, first compound 0.1 µM
# [3] = second compound 0.0316 µM, first compound 0.316 µM
# [4] = second compound 0.0316 µM, first compound 1 µM
# [5] = second compound 0.0316 µM, first compound 3.16 µM
# [6] = second compound 0.0316 µM, first compound 10 µM
# [7] = second compound 0.1 µM, first compound 0.0316 µM
# [8] = second compound 0.1 µM, first compound 0.1 µM
# [9] = second compound 0.1 µM, first compound 0.316 µM
# [10] = second compound 0.1 µM, first compound 1 µM
# [11] = second compound 0.1 µM, first compound 3.16 µM
# [12] = second compound 0.1 µM, first compound 10 µM
# [13] = second compound 0.316 µM, first compound 0.0316 µM
# [14] = second compound 0.316 µM, first compound 0.1 µM
# [15] = second compound 0.316 µM, first compound 0.316 µM
# [16] = second compound 0.316 µM, first compound 1 µM
# [17] = second compound 0.316 µM, first compound 3.16 µM
# [18] = second compound 0.316 µM, first compound 10 µM
# [19] = second compound 1 µM, first compound 0.0316 µM
# [20] = second compound 1 µM, first compound 0.1 µM
# [21] = second compound 1 µM, first compound 0.316 µM
# [22] = second compound 1 µM, first compound 1 µM
# [23] = second compound 1 µM, first compound 3.16 µM
# [24] = second compound 1 µM, first compound 10 µM
# [25] = second compound 3.16 µM, first compound 0.0316 µM
# [26] = second compound 3.16 µM, first compound 0.1 µM
# [27] = second compound 3.16 µM, first compound 0.316 µM
# [28] = second compound 3.16 µM, first compound 1 µM
# [29] = second compound 3.16 µM, first compound 3.16 µM
# [30] = second compound 3.16 µM, first compound 10 µM
# [31] = second compound 10 µM, first compound 0.0316 µM
# [32] = second compound 10 µM, first compound 0.1 µM
# [33] = second compound 10 µM, first compound 0.316 µM
# [34] = second compound 10 µM, first compound 1 µM
# [35] = second compound 10 µM, first compound 3.16 µM
# [36] = second compound 10 µM, first compound 10 µM
# 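Note: spheroids exposed to compounds for 7 days before readout.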
# 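Throughout, for viability, T/C: 100% = DMSO vehicle control viability.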
compound,measurement,setting,value
COc1cc2cc(C(=O)CCC(=O)O)sc2cc1OC + Cc1cccc(N(C)C(=O)C2C(O)CCN2c2nc(C)cc(C(F)(F)F)c2C#N)c1,IC50,second compound 0.0316 µM,> 10 µM
same,IC50,second compound 0.1 µM,> 10 µM
same,IC50,second compound 0.316 µM,> 10 µM
same,IC50,second compound 1 µM,> 10 µM
same,IC50,second compound 3.16 µM,> 10 µM
same,IC50,second compound 10 µM,> 10 µM
same,"viability, T/C",[1],100%
same,"viability, T/C",[2],103%
same,"viability, T/C",[3],99.8%
same,"viability, T/C",[4],95.8%
same,"viability, T/C",[5],102%
same,"viability, T/C",[6],81.8%
same,"viability, T/C",[7],91.5%
same,"viability, T/C",[8],88.8%
same,"viability, T/C",[9],95.4%
same,"viability, T/C",[10],93.6%
same,"viability, T/C",[11],95.7%
same,"viability, T/C",[12],77%
same,"viability, T/C",[13],102%
same,"viability, T/C",[14],92.8%
same,"viability, T/C",[15],101%
same,"viability, T/C",[16],102%
same,"viability, T/C",[17],97.4%
same,"viability, T/C",[18],71.2%
same,"viability, T/C",[19],91.2%
same,"viability, T/C",[20],103%
same,"viability, T/C",[21],91.5%
same,"viability, T/C",[22],88%
same,"viability, T/C",[23],108%
same,"viability, T/C",[24],74.2%
same,"viability, T/C",[25],87.8%
same,"viability, T/C",[26],94.1%
same,"viability, T/C",[27],90.3%
same,"viability, T/C",[28],110%
same,"viability, T/C",[29],87.2%
same,"viability, T/C",[30],80%
same,"viability, T/C",[31],86%
same,"viability, T/C",[32],97.5%
same,"viability, T/C",[33],97.9%
same,"viability, T/C",[34],101%
same,"viability, T/C",[35],102%
same,"viability, T/C",[36],81%
COc1cc(C2c3cc4c(cc3C(OC3OC5COC(C)OC5C(O)C3O)C3COC(=O)C23)OCO4)cc(OC)c1O (stereo not given) + COC1C(OC(N)=O)C(O)C(Oc2ccc3c(O)c(NC(=O)c4ccc(O)c(CC=C(C)C)c4)c(=O)oc3c2C)OC1(C)C,IC50,second compound 0.0316 µM,> 10 µM
same,IC50,second compound 0.1 µM,> 10 µM
same,IC50,second compound 0.316 µM,> 10 µM
same,IC50,second compound 1 µM,> 10 µM
same,IC50,second compound 3.16 µM,> 10 µM
same,IC50,second compound 10 µM,> 10 µM
same,"viability, T/C",[1],120%
same,"viability, T/C",[2],105%
same,"viability, T/C",[3],98.9%
same,"viability, T/C",[4],94.9%
same,"viability, T/C",[5],98.2%
same,"viability, T/C",[6],76.1%
same,"viability, T/C",[7],118%
same,"viability, T/C",[8],108%
same,"viability, T/C",[9],118%
same,"viability, T/C",[10],92%
same,"viability, T/C",[11],95.9%
same,"viability, T/C",[12],83.3%
same,"viability, T/C",[13],95.7%
same,"viability, T/C",[14],104%
same,"viability, T/C",[15],96.1%
same,"viability, T/C",[16],90.3%
same,"viability, T/C",[17],84.8%
same,"viability, T/C",[18],73.1%
same,"viability, T/C",[19],107%
same,"viability, T/C",[20],99.1%
same,"viability, T/C",[21],100%
same,"viability, T/C",[22],83.2%
same,"viability, T/C",[23],106%
same,"viability, T/C",[24],94%
same,"viability, T/C",[25],96.2%
same,"viability, T/C",[26],113%
same,"viability, T/C",[27],109%
same,"viability, T/C",[28],115%
same,"viability, T/C",[29],97.6%
same,"viability, T/C",[30],72.3%
same,"viability, T/C",[31],83.9%
same,"viability, T/C",[32],115%
same,"viability, T/C",[33],98.9%
same,"viability, T/C",[34],91.2%
same,"viability, T/C",[35],101%
same,"viability, T/C",[36],80.8%
CC1COCCN1c1cc(C2(S(C)(=N)=O)CC2)nc(-c2ccnc3[nH]ccc23)n1 (stereo not given) + Cc1cccc(N(C)C(=O)C2C(O)CCN2c2nc(C)cc(C(F)(F)F)c2C#N)c1,IC50,second compound 0.0316 µM,> 10 µM
same,IC50,second compound 0.1 µM,> 10 µM
same,IC50,second compound 0.316 µM,> 10 µM
same,IC50,second compound 1 µM,> 10 µM
same,IC50,second compound 3.16 µM,> 10 µM
same,IC50,second compound 10 µM,> 10 µM
same,"viability, T/C",[1],96.9%
same,"viability, T/C",[2],107%
same,"viability, T/C",[3],122%
same,"viability, T/C",[4],104%
same,"viability, T/C",[5],111%
same,"viability, T/C",[6],90.9%
same,"viability, T/C",[7],101%
same,"viability, T/C",[8],103%
same,"viability, T/C",[9],95%
same,"viability, T/C",[10],96.2%
same,"viability, T/C",[11],117%
same,"viability, T/C",[12],106%
same,"viability, T/C",[13],95.7%
same,"viability, T/C",[14],108%
same,"viability, T/C",[15],73.7%
same,"viability, T/C",[16],112%
same,"viability, T/C",[17],84%
same,"viability, T/C",[18],70%
same,"viability, T/C",[19],98.7%
same,"viability, T/C",[20],102%
same,"viability, T/C",[21],94.3%
same,"viability, T/C",[22],75.4%
same,"viability, T/C",[23],96.7%
same,"viability, T/C",[24],92.5%
same,"viability, T/C",[25],88.1%
same,"viability, T/C",[26],95.2%
same,"viability, T/C",[27],99.2%
same,"viability, T/C",[28],106%
same,"viability, T/C",[29],101%
same,"viability, T/C",[30],101%
same,"viability, T/C",[31],93.2%
same,"viability, T/C",[32],97%
same,"viability, T/C",[33],98.8%
same,"viability, T/C",[34],98.5%
same,"viability, T/C",[35],98.8%
same,"viability, T/C",[36],77%
CCCS(=O)(=O)Nc1ccc(F)c(C(=O)c2c[nH]c3ncc(-c4ccc(Cl)cc4)cc23)c1F + COC1C(OC(N)=O)C(O)C(Oc2ccc3c(O)c(NC(=O)c4ccc(O)c(CC=C(C)C)c4)c(=O)oc3c2C)OC1(C)C,IC50,second compound 0.0316 µM,> 10 µM
same,IC50,second compound 0.1 µM,> 10 µM
same,IC50,second compound 0.316 µM,> 10 µM
same,IC50,second compound 1 µM,> 10 µM
same,IC50,second compound 3.16 µM,> 10 µM
same,IC50,second compound 10 µM,> 10 µM
same,"viability, T/C",[1],110%
same,"viability, T/C",[2],98.7%
same,"viability, T/C",[3],106%
same,"viability, T/C",[4],105%
same,"viability, T/C",[5],102%
same,"viability, T/C",[6],104%
same,"viability, T/C",[7],82%
same,"viability, T/C",[8],109%
same,"viability, T/C",[9],97.5%
same,"viability, T/C",[10],85.5%
same,"viability, T/C",[11],129%
same,"viability, T/C",[12],109%
same,"viability, T/C",[13],96.9%
same,"viability, T/C",[14],94.9%
same,"viability, T/C",[15],121%
same,"viability, T/C",[16],130%
same,"viability, T/C",[17],97.9%
same,"viability, T/C",[18],108%
same,"viability, T/C",[19],105%
same,"viability, T/C",[20],103%
same,"viability, T/C",[21],121%
same,"viability, T/C",[22],95.9%
same,"viability, T/C",[23],105%
same,"viability, T/C",[24],84.8%
same,"viability, T/C",[25],102%
same,"viability, T/C",[26],124%
same,"viability, T/C",[27],99.7%
same,"viability, T/C",[28],105%
same,"viability, T/C",[29],89.9%
same,"viability, T/C",[30],97.6%
same,"viability, T/C",[31],94.2%
same,"viability, T/C",[32],118%
same,"viability, T/C",[33],95.2%
same,"viability, T/C",[34],111%
same,"viability, T/C",[35],113%
same,"viability, T/C",[36],110%
CNCc1ccc(-c2[nH]c3cc(F)cc4c3c2CCNC4=O)cc1 + Nc1ccc(C#CCN(C(=O)Cc2ncc(C(F)(F)F)cc2C(F)(F)F)c2ccc(F)cc2)nn1,IC50,second compound 0.0316 µM,> 10 µM
same,IC50,second compound 0.1 µM,> 10 µM
same,IC50,second compound 0.316 µM,> 10 µM
same,IC50,second compound 1 µM,> 10 µM
same,IC50,second compound 3.16 µM,> 10 µM
same,IC50,second compound 10 µM,> 10 µM
same,"viability, T/C",[1],98.4%
same,"viability, T/C",[2],91.8%
same,"viability, T/C",[3],98.2%
same,"viability, T/C",[4],93.4%
same,"viability, T/C",[5],97.7%
same,"viability, T/C",[6],117%
same,"viability, T/C",[7],112%
same,"viability, T/C",[8],99.5%
same,"viability, T/C",[9],114%
same,"viability, T/C",[10],95.1%
same,"viability, T/C",[11],110%
same,"viability, T/C",[12],108%
same,"viability, T/C",[13],104%
same,"viability, T/C",[14],97.2%
same,"viability, T/C",[15],96.3%
same,"viability, T/C",[16],101%
same,"viability, T/C",[17],93.2%
same,"viability, T/C",[18],119%
same,"viability, T/C",[19],99.2%
same,"viability, T/C",[20],90.1%
same,"viability, T/C",[21],93%
same,"viability, T/C",[22],97%
same,"viability, T/C",[23],106%
same,"viability, T/C",[24],106%
same,"viability, T/C",[25],94.5%
same,"viability, T/C",[26],98%
same,"viability, T/C",[27],103%
same,"viability, T/C",[28],99.7%
same,"viability, T/C",[29],97.1%
same,"viability, T/C",[30],100%
same,"viability, T/C",[31],88.1%
same,"viability, T/C",[32],97.5%
same,"viability, T/C",[33],99.3%
same,"viability, T/C",[34],94.5%
same,"viability, T/C",[35],103%
same,"viability, T/C",[36],109%
